From patent US20260125350A1, “CENTROMERE PROTEIN CENP-M SMALL MOLECULE INHIBITOR CENPEMLIN, AND PREPARATION METHOD THEREFOR AND USE THEREOF” (UNIVERSITY OF SCIENCE AND TECHNOLOGY OF CHINA, priority 2022, published 2026) come the findings set out here.

The subject of assay [1] is liver cancer cells MHCC97-H cells. The experiment in a line: Liver implantation model of luciferase-stable liver cancer cells in mice, luciferase imaging. It counts as in vivo, NOD/SCID mice. The following applies: intraperitoneal injection, 11th day of administration; cenpemlin 2 mg/kg. As for the experimental part:
• 1) According to the published experimental protocol (Chen et al., 2011. Cancer Res), we implanted luciferase-stable liver cancer cells MHCC97-H cells (5×10^6 in 0.1 mL saline) into the liver of 6-week-old female NOD/SCID mice. The experiment was divided into three groups, namely the DMSO control group, the paclitaxel group and the cenpemlin group (2 mg/kg), with 10 mice in each group. • 2) After 14 days of modeling (successful modeling of luciferase test), the DMSO control group, the paclitaxel group and the cenpemlin experimental group (2 mg/kg) were intraperitoneally injected (0.2 mL per mouse; 0.1 mL was injected on both sides) […]. • 3) After four injections every other day (the 11th day of administration), the luciferase test was performed.

For assay [2], the target named is T1, interaction between CENP-M and CENP-L (Homo sapiens, UniProt Q9NSP4).
T1 construct: expressed in transfected cells; host or cells: HEK293T
T1 sequence (Q9NSP4 whole entry): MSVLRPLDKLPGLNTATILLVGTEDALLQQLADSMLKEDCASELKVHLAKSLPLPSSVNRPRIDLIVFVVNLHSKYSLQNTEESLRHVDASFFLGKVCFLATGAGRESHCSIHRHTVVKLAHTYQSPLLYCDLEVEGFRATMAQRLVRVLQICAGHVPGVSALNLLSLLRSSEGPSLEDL
Put plainly: Co-immunoprecipitation of GFP-CENP-M with FLAG-CENP-L from treated HEK293T cells, immunoblot. It counts as cell-based. The following applies: 1 μM, 1 h, FLAG beads pull-down. As for the experimental part: • 1) Inoculate HEK293T cells into 6 cm culture dishes; • 2) transfect plasmid DNA: GFP-CENP-M and FLAG-CENP-L after 24 h (the density of cells is 70%-80%); • 3) replace with fresh culture medium 4 h after transfection and continue to culture for 24 h; • 4) add cenpemlin with a final concentration of 1 μM or the same volume of DMSO to treat cells for 1 h; • 5) scrape the cells with a cell scraper, collect them in a centrifuge tube, and remove the culture medium by centrifugation at 1,000 rpm; • 6) add cell lysis buffer for ultrasonic disruption, and centrifuge at 12,000 rpm for 10 min; • 7) take the supernatant and incubate with FLAG beads for 4 h; • 8) wash the beads for three times with cell lysis buffer, boil the sample with sample buffer, and then perform electrophoresis and immunoblot analysis.
(In general: A western blot detects proteins with antibodies after separation by electrophoresis.)

The subject of assay [3] is MDA-MB-231 cells (triple negative breast cancer cells). The experiment in a line: Trypan blue staining of cancer cells after treatment. Format: cell-based. Particulars: 1 μM, 24 h. The procedure:
(§1) • 1) HeLa cells (cervical cancer cells), MDA-MB-231 cells (triple negative breast cancer cells) and HepG2 cells (liver cancer cells) were seeded into 6 cm culture dishes; • 2) The small molecule compound cenpemlin or DMSO was added at a final concentration of 1 μM to treat the cells for 24 h; • 3) The cells were digested with trypsin and the cell suspension was taken for trypan blue staining; • 4) The blue-stained cells were observed and counted under an ordinary optical microscope.

Assay [4] deals with HepG2 cells (liver cancer cells). The assay is described as above. The following applies: 1 μM, 24 h. It counts as cell-based. The procedure:
as §1

Assay [5] concerns HeLa cells (cervical cancer cells). Described as above. Particulars: 1 μM, 24 h. Format: cell-based. As for the experimental part: as §1
Assay [6] relates to HeLa cells. The experiment in a line: Elution (washout) effect, real-time live cell imaging after MG132 and compound treatment. Format: cell-based. Particulars: 1 h with MG132 20 μM and compound, then washed out. The procedure:
• 1) Seed HeLa cells into 35 mm live-cell imaging dishes; • 2) transfect plasmid DNA after 24 h: GFP-tubulin and mCherry-H2B (the density of transfected plasmid cells is 70%-80%); • 3) replace with fresh culture medium 6 h after transfection and add MG132 at a final concentration of 20 μM and cenpemlin or DMSO to treat the cells for 1 h; • 4) turn on the Applied Precision Personal DV microscope and the thermostat to stabilize the temperature at 37° C.; • 5) wash the cells three times with PBS prewarmed at 37° C. to release the cells, and then replace with fresh culture medium to continue culturing; • 6) immediately after release, replace the cell culture medium with CO2-independent Medium; • 7) place the cells on the 37° C. thermostat stage of the DV microscope and imaging in real time by a 60×, NA=1.42 lens, taking one frame every 3 min.

The test system of assay [7] is HeLa cells stably expressing GFP-CENP-N. Put plainly: Chromosome alignment phenotype in mitosis, immunofluorescence imaging. Format: cell-based. Particulars: 1 μM, 1 h, after thymidine release. As for the experimental part: • 1) HeLa cells stably expressing GFP-CENP-N were seeded on a round coverslip with a diameter of 12 mm; • 2) after 24 h, Thymidine was added to the cells at a final concentration of 2 mM for 14-16 h; • 3) the cells were washed three times with PBS prewarmed at 37° C. to elute Thymidine, and fresh culture medium was added to continue culturing for 8 h; • 4) cempelin was added to the experimental group at a final concentration of 1 μM, and the control group was added with an equal volume of DMSO for 1 h; • 5) the cells were fixed with PBS buffer containing 3.7% formaldehyde for 10 min; • 6) after 0.2% TritonX-100 permeabilization and 1% BSA blocking, ACA antibody was incubated at room temperature for 1 h; • 7) DAPI was stained for 3 min and then the slides were sealed; • 8) the slides were placed on the DV microscope stage and imaged by a 60×, NA=1.42 lens.

Assay [8] relates to HeLa cells. Put plainly: Real-time live cell imaging of mitosis (mitotic arrest). The following applies: 1 μM. Format: cell-based. As for the experimental part: • 1) Inoculate HeLa cells into 35 mm live cell culture dishes; • 2) transfect plasmid DNA: GFP-tubulin and mCherry-H2B after 24 h (the density of transfected plasmid cells is 70%-80%); • 3) replace with fresh culture medium 6 h after transfection and add 2 mM Thymidine to treat cells for 14-16 h; • 4) wash cells 3 times with PBS preheated at 37° C. to release cells, then replace with fresh culture medium to continue culturing; • 5) turn on the Applied Precision Personal DV microscope and thermostat to stabilize the temperature at 37° C.; • 6) 8-9 h after release, replace the cell culture medium with CO2-independent Medium, add cenpemlin with a final concentration of 1 μM or the same volume of DMSO; • 7) place the cells on the 37° C. thermostat stage of the DV microscope and shoot real-time under a 60×, NA=1.42 lens, taking one frame every 3 min.

Take `CC(=O)O[C@H]1C(=O)[C@@]2(C)[C@H]([C@H](OC(=O)c3ccccc3)[C@]3(O)C[C@H](OC(=O)[C@H](O)[C@@H](NC(=O)c4ccccc4)c4ccccc4)C(C)=C1C3(C)C)[C@]1(OC(C)=O)CO[C@@H]1C[C@@H]2O` [paclitaxel, reference compound]: the “number of cancer cells in the liver of mice (luciferase test)” value in assay [1] is given as “significantly reduced”.
As to `OCC(O)C(O)C(O)C(O)/C=N/Nc1nc(N2CCOCC2)nc(N2CCOCC2)n1` (centres unmarked) [cenpemlin], in assay [2], the “interaction between CENP-M and CENP-L compared with control group” value is given as “weakened”. Also, the “proportion of trypan blue stained cells” value in assay [3], in assay [4] and in assay [5] was “increase” throughout. Besides, the “spindle phenotype after elution” value in the assay with HeLa cells [6] is recorded as “multipolar spindles”. The “time to exit mitosis after elution” value in the assay on HeLa cells [6] was determined as 45 min. In addition, the “chromosome alignment in cell mitosis” value in assay [7] was “abnormal chromosome alignment”. In addition, in the assay on HeLa cells [8] (HeLa), the “time after nuclear membrane rupture without entering the late stage” value is more than 120 min. For the same compound, the “mitotic progression (delay)” value in the assay on HeLa cells [8] (HeLa GFP-tubulin/mCherry-H2B) is “obvious mitotic delays”. The “number of cancer cells in the liver of mice (luciferase test)” value in assay [1] is reported as “significantly reduced”.
